Source: US20210120813A1, “INHIBITORS OF THE SHIKIMATE PATHWAY” (PEPTICOM LTD., priority 2018, published 2021)
Several values for one entry are separate records, joined by “and”; a condition that tells them apart may be missing. Equal entries are not always repeated. Entries after “also recorded” stand apart in the source; their conditions may differ. Where two headings read alike, the source gives them in different places.

What was measured:
[1] = tested on: EPSPS (wild type) from common wheat; type: cell-based, Triticum Aestivum; settings: for ability of rescued AB2829 bacteria cells (wild type EPSPS) to grow on M9 minimal media: 40 h, 0.1% rhamnose
[2] = tested on: EPSPS (TIPS mutant) from common wheat; type: cell-based, Triticum Aestivum
[3] = tested on: EPSPS (TIPS mutant) from common wheat; type: cell-based, Triticum Aestivum; remark: listed apart in the source
[4] = tested on: Lolium multiflorum (LOLMU); assay: Weed efficacy on petri dishes, germination and visual notation, LOLMU; type: in vivo; settings: for LOLMU Visual notation Mean: scale 0 = as control to 100
[5] = tested on: Chenopodium album (CHEAL); assay: Weed efficacy on petri dishes, germination and visual notation, CHEAL; type: in vivo; settings: for CHEAL Visual notation Mean: scale 0 = as control to 100
[6] = biological target: WT EPSPS (Triticum aestivum, UniProt B5M6A1); assay: In-vitro kinetics of EPSPS enzymatic activity (Malachite green phosphate release), WT; type: biochemical; settings: apparent Km increases, Vmax unaffected; glyphosate vs PEP, compound 4 vs S3P
WT EPSPS, sequence (B5M6A1 66-510 limits assumed): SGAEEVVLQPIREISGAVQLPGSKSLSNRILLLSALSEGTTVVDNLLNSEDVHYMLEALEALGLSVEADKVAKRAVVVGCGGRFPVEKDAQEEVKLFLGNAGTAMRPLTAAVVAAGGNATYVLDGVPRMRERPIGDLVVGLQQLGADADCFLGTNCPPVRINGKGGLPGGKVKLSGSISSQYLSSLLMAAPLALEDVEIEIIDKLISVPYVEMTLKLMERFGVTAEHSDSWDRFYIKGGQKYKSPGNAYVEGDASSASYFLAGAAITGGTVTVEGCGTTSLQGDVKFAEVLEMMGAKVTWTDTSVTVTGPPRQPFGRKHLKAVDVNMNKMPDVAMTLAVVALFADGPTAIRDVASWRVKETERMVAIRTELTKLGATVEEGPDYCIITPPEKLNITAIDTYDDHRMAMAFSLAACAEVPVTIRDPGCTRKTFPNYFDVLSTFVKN

[7] = biological target: TIPS EPSPS (Triticum aestivum, UniProt B5M6A1, P172S/T168I); type: biochemical; settings: for effect of the TIPS mutation on inhibition of EPSPS activity (IC50 WT vs TIPS): WT vs TIPS EPSPS enzyme
TIPS EPSPS, sequence (B5M6A1 66-510 P172S/T168I limits assumed): as the sequence (B5M6A1 66-510 limits assumed) above, with T103I, P107S counted along it

SMILES: O=C(O)c1cccc(O)c1O [Compound 3, 2,3-Dihydroxybenzoic acid]
- % bacterial growth relative to rescue with wild type EPSPS at 5 mM, 40 h post application [1]: 54%
- ability of rescued AB2829 bacteria cells (wild type EPSPS) to grow on M9 minimal media ([1]; 5 mM): completely abolish
- % bacterial growth relative to rescue with mutant EPSPS at 20 mM, 40 h post application [2]: −105%
- ability of rescued AB2829 bacteria cells (EPSPS TIPS) to grow on M9 minimal media ([2]; 20 mM, 40 h, 0.1% rhamnose): completely abolish
- growth with gradually increasing rhamnose (EPSPS TIPS titration) ([3]; 2.5 mM, rhamnose 0%-0.4%, 60 h): facilitates growth in a gradual manner

SMILES: O=C(O)c1cccc(C(=O)O)c1O [Compound 5, 2-Hydroxy-1,3-benzenedicarboxylic acid]
- % bacterial growth relative to rescue with mutant EPSPS at 20 mM, 40 h post application [2]: −220%
- ability of rescued AB2829 bacteria cells (EPSPS TIPS) to grow on M9 minimal media ([2]; 20 mM, 40 h, 0.1% rhamnose): completely abolish

SMILES: O=C(O)c1ccc(O)c([N+](=O)[O-])c1 [Compound 10, 4-Hydroxy-3-nitrobenzoic acid]
- % bacterial growth relative to rescue with wild type EPSPS at 5 mM, 40 h post application [1]: −61%
- ability of rescued AB2829 bacteria cells (wild type EPSPS) to grow on M9 minimal media ([1]; 5 mM): completely abolish
- % bacterial growth relative to rescue with mutant EPSPS at 20 mM, 40 h post application [2]: −21%
- ability of rescued AB2829 bacteria cells (EPSPS TIPS) to grow on M9 minimal media ([2]; 20 mM, 40 h, 0.1% rhamnose): completely abolish
- LOLMU Germination (%) Mean ([4]; 50 mg a.i./L, 10 DAT): 95.6%
- LOLMU Visual notation Mean ([4]; 50 mg a.i./L, 10 DAT): 18.4
- LOLMU Germination (%) Mean ([4]; 500 mg a.i./L, 10 DAT): 95.6%
- LOLMU Visual notation Mean ([4]; 500 mg a.i./L, 10 DAT): 31.8
- LOLMU Germination (%) Mean ([4]; 5000 mg a.i./L, 10 DAT): 95.6%
- LOLMU Visual notation Mean ([4]; 5000 mg a.i./L, 10 DAT): 54.0
- CHEAL Germination (%) Mean ([5]; 50 mg a.i./L, 10 DAT): 68.8%
- CHEAL Visual notation Mean ([5]; 50 mg a.i./L, 10 DAT): 52.4
- CHEAL Germination (%) Mean ([5]; 500 mg a.i./L, 10 DAT): 81.7%
- CHEAL Visual notation Mean ([5]; 500 mg a.i./L, 10 DAT): 54.4
- CHEAL Germination (%) Mean ([5]; 5000 mg a.i./L, 10 DAT): 56.7%
- CHEAL Visual notation Mean ([5]; 5000 mg a.i./L, 10 DAT): 76.5
- growth with gradually increasing rhamnose (EPSPS TIPS titration) ([3]; 0.4 mM, rhamnose 0%-0.4%, 60 h): facilitates growth in a gradual manner

SMILES: O=C(O)c1cc(C(F)(F)F)cc([N+](=O)[O-])c1F [Compound 16, 2-Fluoro-3-nitro-5-(trifluoromethyl)benzoic acid]
- % bacterial growth relative to rescue with mutant EPSPS at 20 mM, 40 h post application [2]: −56%
- ability of rescued AB2829 bacteria cells (EPSPS TIPS) to grow on M9 minimal media ([2]; 20 mM, 40 h, 0.1% rhamnose): completely abolish

SMILES: O=C1NC(=O)c2c1ccc(O)c2O [Compound 13, 4,5-Dihydroxyisoindoline-1,3-dione]
- % bacterial growth relative to rescue with wild type EPSPS at 5 mM, 40 h post application [1]: −20%
- ability of rescued AB2829 bacteria cells (wild type EPSPS) to grow on M9 minimal media ([1]; 5 mM): completely abolish
- % bacterial growth relative to rescue with mutant EPSPS at 20 mM, 40 h post application [2]: −31%
- ability of rescued AB2829 bacteria cells (EPSPS TIPS) to grow on M9 minimal media ([2]; 20 mM, 40 h, 0.1% rhamnose): completely abolish
- growth with gradually increasing rhamnose (EPSPS TIPS titration) ([3]; 0.25 mM, rhamnose 0%-0.4%, 60 h): could not facilitates growth in a gradual manner
- rescue of growth phenotype by titration of EPSPS TIPS intracellular levels ([3]; single inhibitory dose, rhamnose 0.0%-0.4%): couldn't rescue the growth phenotype

SMILES: COc1c(C(=O)O)ccc([N+](=O)[O-])c1O [Compound 1, 3-Hydroxy-2-methoxy-4-nitrobenzoic acid]
- % bacterial growth relative to rescue with wild type EPSPS at 5 mM, 40 h post application [1]: −15%
- ability of rescued AB2829 bacteria cells (wild type EPSPS) to grow on M9 minimal media ([1]; 5 mM): completely abolish
- % bacterial growth relative to rescue with mutant EPSPS at 20 mM, 40 h post application [2]: −79%
- ability of rescued AB2829 bacteria cells (EPSPS TIPS) to grow on M9 minimal media ([2]; 20 mM, 40 h, 0.1% rhamnose): completely abolish

SMILES: Nc1cc(O)c([N+](=O)[O-])cc1C(=O)O [Compound 4, 2-Amino-4-hydroxy-5-nitrobenzoic acid]
- % bacterial growth relative to rescue with wild type EPSPS at 5 mM, 40 h post application [1]: −87%
- ability of rescued AB2829 bacteria cells (wild type EPSPS) to grow on M9 minimal media ([1]; 5 mM): completely abolish
- mode of EPSPS inhibition (Michaelis-Menten and Lineweaver-Burk plots) [6]: competitive inhibitor
- % bacterial growth relative to rescue with mutant EPSPS at 20 mM, 40 h post application [2]: −94%
- ability of rescued AB2829 bacteria cells (EPSPS TIPS) to grow on M9 minimal media ([2]; 20 mM, 40 h, 0.1% rhamnose): completely abolish
- inhibition of the TIPS mutant relative to glyphosate ([7]; IC50 comparison, TIPS EPSPS enzyme): one order of magnitude better
- effect of the TIPS mutation on inhibition of EPSPS activity (IC50 WT vs TIPS) [7]: hardly affected
- growth with gradually increasing rhamnose (EPSPS TIPS titration) ([3]; 1.0 mM, rhamnose 0%-0.4%, 60 h): facilitates growth in a gradual manner

SMILES: O=C(O)c1cc([N+](=O)[O-])c(F)c(C(F)(F)F)c1 [Compound 14, 4-Fluoro-3-nitro-5-(trifluoromethyl)benzoic acid]
- % bacterial growth relative to rescue with mutant EPSPS at 20 mM, 40 h post application [2]: −142%
- ability of rescued AB2829 bacteria cells (EPSPS TIPS) to grow on M9 minimal media ([2]; 20 mM, 40 h, 0.1% rhamnose): completely abolish

SMILES: Nc1ccc([N+](=O)[O-])cc1C(=O)O [Compound 7, 2-Amino-5-nitrobenzoic acid]
- % bacterial growth relative to rescue with mutant EPSPS at 20 mM, 40 h post application [2]: −260%
- ability of rescued AB2829 bacteria cells (EPSPS TIPS) to grow on M9 minimal media ([2]; 20 mM, 40 h, 0.1% rhamnose): completely abolish

SMILES: O=C(O)CNCP(=O)(O)O [Glyphosate, N-(phosphonomethyl)glycine, reference compound]
- % bacterial growth relative to rescue with wild type EPSPS, 40 h post application [1]: +6.0% (0.7 mM) −46% (1.5 mM)
- ability of rescued AB2829 bacteria cells (wild type EPSPS) to grow on M9 minimal media ([1]; 0.7 mM): could not facilitates growth
- ability of rescued AB2829 bacteria cells (wild type EPSPS) to grow on M9 minimal media ([1]; 1.5 mM): could not facilitates growth
- mode of EPSPS inhibition (Michaelis-Menten and Lineweaver-Burk plots) [6]: competitive inhibitor
- % bacterial growth relative to rescue with mutant EPSPS at 20 mM, 40 h post application [2]: +127% (+/−37%)
- ability of rescued AB2829 bacteria cells (EPSPS TIPS) to grow on M9 minimal media ([2]; 20 mM, 40 h, 0.1% rhamnose): TIPS mutant is indifferent to glyphosate; also recorded: facilitates growth
- effect of the TIPS mutation on inhibition of EPSPS activity (IC50 WT vs TIPS) [7]: 3 orders of magnitude stronger
- growth with gradually increasing rhamnose (EPSPS TIPS titration) [3]: facilitates growth in a gradual manner

SMILES: O=C(O)c1cc([N+](=O)[O-])cc([N+](=O)[O-])c1 [Compound 11, 3,5-Dinitrobenzoic acid]
- ability of rescued AB2829 bacteria cells (wild type EPSPS) to grow on M9 minimal media ([1]; 5 mM): completely abolish
- % bacterial growth relative to rescue with wild type EPSPS at 5 mM, 40 h post application ([1]; 5 mM, 40 h post application, OD600, EPSPS null = 0%, Rescue = 100%): −38%
- % bacterial growth relative to rescue with mutant EPSPS at 20 mM, 40 h post application [2]: −27%
- ability of rescued AB2829 bacteria cells (EPSPS TIPS) to grow on M9 minimal media [2]: completely abolish
- LOLMU Germination (%) Mean ([4]; in vivo): 82.2% and 95.6%
- CHEAL Germination (%) Mean ([5]; in vivo): 73.3% and 66.1% and 37.6%
- growth with gradually increasing rhamnose (EPSPS TIPS titration) [3]: facilitates growth in a gradual manner

SMILES: COC(=O)c1cc([N+](=O)[O-])cc([N+](=O)[O-])c1 [Compound 12, 3,5-Dinitrobenzoic acid methyl ester]
- ability of rescued AB2829 bacteria cells (wild type EPSPS) to grow on M9 minimal media ([1]; 5 mM): completely abolish
- % bacterial growth relative to rescue with mutant EPSPS at 20 mM, 40 h post application [2]: −29%
- ability of rescued AB2829 bacteria cells (EPSPS TIPS) to grow on M9 minimal media [2]: completely abolish

SMILES: O=C(O)c1cc([N+](=O)[O-])cc([N+](=O)[O-])c1O [Compound 6, 2-Hydroxy-3,5-dinitrobenzoic acid]
- % bacterial growth relative to rescue with mutant EPSPS at 20 mM, 40 h post application [2]: −285%
- ability of rescued AB2829 bacteria cells (EPSPS TIPS) to grow on M9 minimal media [2]: completely abolish

SMILES: COc1ccc(C(=O)O)cc1O [Compound 2, 3-Hydroxy-4-methoxybenzoic acid]
- % bacterial growth relative to rescue with wild type EPSPS at 5 mM, 40 h post application [1]: 27%
- ability of rescued AB2829 bacteria cells (wild type EPSPS) to grow on M9 minimal media ([1]; 5 mM): completely abolish
- % bacterial growth relative to rescue with mutant EPSPS at 20 mM, 40 h post application [2]: −25%
- ability of rescued AB2829 bacteria cells (EPSPS TIPS) to grow on M9 minimal media ([2]; 20 mM, 40 h, 0.1% rhamnose): completely abolish

SMILES: CNc1ccc([N+](=O)[O-])cc1C(=O)O [Compound 8, -(Methylamino)-5-nitrobenzoic acid]
- % bacterial growth relative to rescue with mutant EPSPS at 20 mM, 40 h post application [2]: −272%
- ability of rescued AB2829 bacteria cells (EPSPS TIPS) to grow on M9 minimal media ([2]; 20 mM, 40 h, 0.1% rhamnose): completely abolish
- LOLMU Germination (%) Mean ([4]; 50 mg a.i./L, 10 DAT): 93.2%
- LOLMU Visual notation Mean ([4]; 50 mg a.i./L, 10 DAT): 3.5
- LOLMU Germination (%) Mean ([4]; 500 mg a.i./L, 10 DAT): 91.1%
- LOLMU Visual notation Mean ([4]; 500 mg a.i./L, 10 DAT): 6.6
- LOLMU Germination (%) Mean ([4]; 5000 mg a.i./L, 10 DAT): 30.4%
- LOLMU Visual notation Mean ([4]; 5000 mg a.i./L, 10 DAT): 64.8
- CHEAL Germination (%) Mean ([5]; 50 mg a.i./L, 10 DAT): 90.0%
- CHEAL Visual notation Mean ([5]; 50 mg a.i./L, 10 DAT): 21.8
- CHEAL Germination (%) Mean ([5]; 500 mg a.i./L, 10 DAT): 55.0%
- CHEAL Visual notation Mean ([5]; 500 mg a.i./L, 10 DAT): 83.8
- CHEAL Germination (%) Mean ([5]; 5000 mg a.i./L, 10 DAT): 34.5%
- CHEAL Visual notation Mean ([5]; 5000 mg a.i./L, 10 DAT): 95.0

SMILES: O=C(O)c1cc([N+](=O)[O-])cc(C(F)(F)F)c1 [Compound 15, 3-Nitro-5-(trifluoromethyl) benzoic acid]
- % bacterial growth relative to rescue with wild type EPSPS at 5 mM, 40 h post application [1]: −177%
- % bacterial growth relative to rescue with mutant EPSPS at 20 mM, 40 h post application [2]: −118%
- ability of rescued AB2829 bacteria cells (EPSPS TIPS) to grow on M9 minimal media ([2]; 20 mM, 40 h, 0.1% rhamnose): completely abolish
- growth with gradually increasing rhamnose (EPSPS TIPS titration) ([3]; 0.6 mM, rhamnose 0%-0.4%, 60 h): facilitates growth in a gradual manner
